System: PINK1 null flies
Assay: Non-progressive phenotypes of PINK1 null flies (ATP levels, thoracic indentation, wing posture, flying ability)
Format: in vivo, fly
Settings: PINK1 null flies fed from adult onset with 2.5 μM
Description: FIG. 8. Related to FIG. 2-4. Miro1 Reducer in Human Cell and Fly Models. (A) Fibroblasts from Healthy-1 and PD-2 were treated, lysed, and blotted as indicated. Band intensities are normalized to those of GAPDH from the same blots and compared to “Healthy-1, no treatment”. n=4 independent experiments. (B) Fibroblasts from PD-2 were treated and immunostained as indicated. The intensity was quantified for each cell across 264-320 cells from 3 independent experiments, compared to “no treatment”. (C) Fibroblasts were treated, immunoprecipitated (IPed) with anti-Miro1, and blotted as indicated. Similar results were observed twice. (D) Similar as in (C), fibroblasts were treated as indicated, and IPed with anti-Miro1. The GTPase activity of the IPed Miro1 protein was measured as described in Method. […] The MitoSox intensity was quantified for each cell across 106-161 cells from 3 coverslips. […] The TMRM intensity was measured for each cell across 48-60 cells from 3 independent experiments, and expressed as a fraction of the mean of “Healthy-1, no treatment”. […] The movement (the intensity of non-yellow) was quantified for each cell as described in (Tsai et al., 2014) across 22-31 cells from 3 transfections. […] (1) Left: The percentage of TH-positive iPSC-derived neurons out of total cells (Dapi-positive) is calculated after immunocytochemistry under 20× as described in FIG. 3. […]

## O=C(Nc1ccc(Nc2cc(-n3ccnc3)ncn2)cc1)Nc1cccc(F)c1 [Miro1 Reducer]
  non-progressive phenotypes (lowered ATP levels, thoracic indentation, abnormal wing posture, defective flying ability): did not improve

Reference: patent US12544375B2, “Small molecule therapeutic for parkinson's disease paired with a biomarker of therapeutic activity” (The Board of Trustees of the Leland Stanford Junior …, priority 2019, dated 2026)
